# Test results: PMC5030359, “Cathelicidin Antimicrobial Peptides with Reduced Activation of Toll-Like Receptor Signaling Have Potent Bactericidal Activity against Colistin-Resistant Bacteria” (mBio, 2016)
# Where “and” joins values, the source holds several entries; their conditions need not be identical. Equal entries are not always repeated. Where two headings read alike, the source gives them in different places. Ends that are not written are not given here. Peptide text beside a SMILES is read from it.
# Assays:
# TLR3 = TLR3 signaling: IL-6 ELISA in BEAS-2B cells treated with poly(I·C); assay type: cell-based, human; conditions: poly(I·C) […], peptide 2 µM, ELISA, control cells = 100%, mean (SD) of minimum three assays
# Method: (§1) Eight cathelicidins produced by eight mammals were selected for an initial examination (Fig. 1A). […] However, the number of charged residues and the lengths of the disordered residues differed (Fig. 1B). The peptides were added to BEAS-2B cells, a human lung epithelial cell line that expresses multiple TLRs and can release proinflammatory cytokines in response to their activation and the enhancement of cytokine release by LL-37 ([15]). BEAS-2B cells treated with the TLR3 agonist poly(I⋅C) and 2 µM LL-37 increased interleukin 6 (IL-6) production by threefold. All of the nonhuman cathelicidins tested had lower TLR3 signaling compared to LL-37 (Fig. 1B). The lack of TLR3 signaling by the nonhuman cathelicidins was due to the inability to use the formyl peptide receptor-like receptor 1 to endocytose the double-stranded RNA (dsRNA)−LL-37 complex and deliver the poly(I⋅C) to TLR3 in endosomes ([17]) (see Fig. S1 in the supplemental material). All of the nonhuman cathelicidins also had reduced activation of TLR9 compared to LL-37 (Fig. 1B).
# (§2) FIG 1 Cathelicidins from animals have distinct abilities to act on Toll-like receptor signaling. (A) A phylogenetic relationship of cathelicidins from mammals. The figure is derived from results of Zanetti et al. (12). (B) Names, lengths, and sequences of cathelicidin peptides and their ability to affect Toll-like receptor signaling. The peptide lengths are shown in the numbers of amino acids (AAs). The residues predicted to form an α-helix are underlined with an arrow. The basic, acidic, and aromatic residues are colored blue, red, and green, respectively. TLR signaling was assessed by the amount of IL-6 cytokine produced in BEAS-2B cells. IL-6 levels were quantified using enzyme-linked immunosorbent assay (ELISA), and the level of IL-6 in the control cells is normalized to 100%. The peptides were added to the cells at a final concentration of 2 μM. Each result is the mean of a minimum of three independent assays, and the standard deviations (SD) are shown in parentheses.
# (§3) The concentration of IL-6 secreted into the cell medium was quantified using the OptEIA kit (BD Biosciences, San Jose, CA). A typical assay used 1 × 10^4 BEAS-2B cells/well grown for 24 h in flat-bottom 96-well plates. Poly(I⋅C) was added to a final concentration of 0.13 µg/ml for 24 h. ODN2006 was added to 0.5 nM. Lipopolysaccharides were used at 0.5 µg/ml. All data shown are the means and ranges of 1 standard error for a minimum of three independent samples. Data sets were compared using the Student t test calculated with GraphPad Prism 5 software.
# TLR9 = TLR9 signaling: IL-6 ELISA in BEAS-2B cells treated with CpG DNA ODN2006; assay type: cell-based, human; conditions: ODN2006 0.5 nM, peptide 2 µM, control cells = 100%, mean (SD) of minimum three assays
# Method: as §1, §2, §3
# TLR4 = TLR4 signaling: IL-6 ELISA in BEAS-2B cells treated with LPS; assay type: cell-based, human; conditions: BEAS-2B cells, LPS 0.5 µg/ml, peptide 2 µM, ELISA, control cells = 100%; mean (SD) of minimum three assays
# Excerpt: as §2
# LL-37 at 2 µM final concentration reduced IL-6 production to approximately half that of the untreated cells (Fig. 1B).
# as §3
# Enterobacter cloacae = conditions: strains with MIC of 16 µg/ml or less / strains tested
# Method: (§4) The bacterial species tested are Klebsiella pneumoniae (K. p.), Serratia marcescens (S. m.), Enterobacter cloacae (E. cl.), Escherichia coli (E. c.), and Pseudomonas aeruginosa (P. a.). MICs were determined by the microdilution assay. […] The results are the median values of at least three independent assays.
# (§5) Antimicrobial activity was determined using the broth microdilution method based on the guidelines of the Clinical and Laboratory Standards Institute (CLSI) ([39]), using cation-adjusted Mueller-Hinton broth (CAMHB) as the testing medium. Reference Gram-positive and Gram-negative bacteria were tested, including both enteric and Pseudomonas aeruginosa strains. Each MIC was determined in at least three independent assays.
# Klebsiella pneumoniae = conditions: strains with MIC of 16 µg/ml or less / strains tested
# Method: as §4, §5
# Serratia marcescens = conditions: for # strains inhibited at 16 µg/ml peptide S. m.: strains with MIC of 16 µg/ml or less / strains tested
# Method: as §4, §5
# E. cloacae 4080 = test: Bacterial killing, colony formation (CFU); assay type: cell-based, Enterobacter cloacae; conditions: 25 µg/ml kanamycin sulfate, E. cloacae 4080
# Method: The number of CFU of E. cloacae 4080 were quantified as a function of time of incubation with a 2 µM concentration of the individual peptides. In the reactions with kanamycin (Kan), 25 µg/ml of kanamycin sulfate was used. […] The initial inoculum was 10^6 CFU in LB.
# [1] = 19 Gram-negative strains, MIC of 16 µg/ml or less
# Method for 19 Gram-negative strains: (A) Sequences of the cathelicidins, the numbers of bacterial strains killed, and hRBC lysis by the cathelicidins. […] The bacterial species tested are Klebsiella pneumoniae (K. p.), Serratia marcescens (S. m.), Enterobacter cloacae (E. cl.), Escherichia coli (E. c.), and Pseudomonas aeruginosa (P. a.). MICs were determined by the microdilution assay. […] The results are the median values of at least three independent assays.
# We tested a panel of cathelicidins for inhibiting growth of 19 Gram-negative strains from the family Enterobacteriaceae and the nonfermentative bacteria. The species tested were Enterobacter cloacae ([2]), Escherichia coli ([5]), Klebsiella pneumoniae ([4]), Pseudomonas aeruginosa ([4]), and Serratia marcescens ([4]). All of the strains selected have been characterized for their antibiotic resistance profiles.
# as §5
# Method for E. faecalis: as §5
# Method for Escherichia coli: as §4, §5
# Method for Pseudomonas aeruginosa: as §4, §5
# Method for S. aureus: as §5
Compound,% IL-6 produced compared to controls (SD) TLR3 (TLR3),% IL-6 produced compared to controls (SD) TLR9 (TLR9),% IL-6 produced compared to controls (SD) TLR4 (TLR4),# strains inhibited at 16 µg/ml peptide E. cl. (Enterobacter cloacae),# strains inhibited at 16 µg/ml peptide E. c. (Escherichia coli),# strains inhibited at 16 µg/ml peptide K. p. (Klebsiella pneumoniae),# strains inhibited at 16 µg/ml peptide P. a. (Pseudomonas aeruginosa),# strains inhibited at 16 µg/ml peptide S. m. (Serratia marcescens),No. of strains inhibited at 16 µg/ml/total no. of strains (19 Gram-negative strains),reduction of CFU over time (E. cloacae 4080),No. of strains inhibited at 16 µg/ml/total no. of strains (19 Gram-negative strains; [1]),concentration usually required to inhibit growth of S. marcescens strains (Serratia marcescens; S. marcescens strains) [µg/mL],MIC E. faecalis 29212 (E. faecalis) [µg/mL],MIC E. faecalis 51299 (E. faecalis) [µg/mL],MIC S. aureus 25923 (S. aureus) [µg/mL],MIC S. aureus 29213 (S. aureus) [µg/mL]
CC[C@H](C)[C@H](NC(=O)[C@H](CCCCN)NC(=O)[C@H](CCC(=O)O)NC(=O)[C@H](CCCCN)NC(=O)[C@@H](NC(=O)[C@H](CCCCN)NC(=O)[C@H](CCCNC(=N)N)NC(=O)[C@H](Cc1ccccc1)NC(=O)[C@H](Cc1ccccc1)NC(=O)[C@H](CC(N)=O)NC(=O)CNC(=O)[C@H](CC(C)C)NC(=O)[C@@H](N)CCCNC(=N)N)C(C)C)C(=O)NCC(=O)NCC(=O)NCC(=O)N[C@@H](CC(C)C)C(=O)N[C@@H](CCCCN)C(=O)N[C@@H](CCCCN)C(=O)N[C@H](C(=O)NCC(=O)N[C@@H](CCC(N)=O)C(=O)N[C@@H](CCCCN)C(=O)N[C@H](C(=O)N[C@@H](CCCCN)C(=O)N[C@@H](CC(=O)O)C(=O)N[C@@H](Cc1ccccc1)C(=O)N[C@@H](CC(C)C)C(=O)NCC(=O)N[C@@H](CC(N)=O)C(=O)N[C@@H](CC(C)C)C(=O)N[C@H](C(=O)N1CCC[C@H]1C(=O)N[C@@H](CCCNC(=N)N)C(=O)N[C@H](C(=O)N[C@@H](C)C(=O)N[C@@H](CO)C(=O)O)[C@@H](C)O)C(C)C)[C@@H](C)CC)C(C)C [RL-37] (H-RLGNFFRKVKEKIGGGLKKVGQKIKDFLGNLVPRTAS-OH; N-terminus and C-terminus assumed),102(18) %,93(19) %,50(5) %,1/2,2/6,3/4,1/4,0/3,7/19,–,–,–,–,–,–,–
NC[C@H]1O[C@H](O[C@H]2[C@H](O)[C@@H](O[C@H]3O[C@H](CO)[C@@H](O)[C@H](N)[C@H]3O)[C@H](N)C[C@@H]2N)[C@H](O)[C@@H](O)[C@@H]1O [kanamycin],–,–,–,–,–,–,–,–,–,only after a 2-h incubation,–,–,–,–,–,–
CAP-18,234(30) %,121(23) %,42(13) %,1/2,3/6,4/4,3/4,0/3,11/19,–,–,–,–,–,–,–
GLRKKFRKTRKRIQKLGRKIGKTGRKVWKAWREYGQIPYPCRI [CAP-11],148(8) %,79(10) %,9(4) %,2/2,5/6,4/4,4/4,1/3,–,–,16,–,–,–,–,–
CRAMP,57(10) %,41(7) %,41(7) %,1/2,1/6,0/4,0/4,0/3,2/19,–,–,–,–,–,–,–
CC[C@H](C)[C@H](NC(=O)[C@@H](NC(=O)[C@@H]1CCCN1C(=O)[C@H](CO)NC(=O)[C@H](CC(C)C)NC(=O)[C@H](CCCCN)NC(=O)[C@H](CCCCN)NC(=O)[C@H](Cc1ccccc1)NC(=O)[C@H](CC(C)C)NC(=O)[C@H](CCCCN)NC(=O)[C@H](CCCCN)NC(=O)[C@H](Cc1ccccc1)NC(=O)[C@H](CCCCN)NC(=O)[C@H](CCCCN)NC(=O)[C@H](CCCNC(=N)N)NC(=O)[C@H](Cc1ccccc1)NC(=O)[C@H](CCCNC(=N)N)NC(=O)[C@H](CCCCN)NC(=O)[C@H](Cc1ccccc1)NC(=O)[C@H](CCCNC(=N)N)NC(=O)CN)C(C)C)C(=O)N1CCC[C@H]1C(=O)N[C@@H](CC(C)C)C(=O)N[C@@H](CC(C)C)C(=O)N[C@@H](Cc1c[nH]cn1)C(=O)N[C@@H](CC(C)C)C(=O)NCC(=O)O [BMAP-27] (H-GRFKRFRKKFKKLFKKLSPVIPLLHLG-OH; N-terminus and C-terminus assumed),–,–,–,2/2,6/6,4/4,4/4,3/3,19 and 19/19,–,≥ 16,8,>32,>32,16,16
CC[C@H](C)[C@H](NC(=O)[C@@H](NC(=O)[C@@H]1CCCN1C(=O)[C@H](CO)NC(=O)[C@H](CC(C)C)NC(=O)[C@H](CCCCN)NC(=O)[C@H](CCCCN)NC(=O)[C@H](C)NC(=O)[C@H](CC(C)C)NC(=O)[C@H](CCCCN)NC(=O)[C@H](CCCCN)NC(=O)[C@H](CC(C)C)NC(=O)[C@H](CCCCN)NC(=O)[C@H](CCCCN)NC(=O)[C@H](CCCNC(=N)N)NC(=O)[C@H](CC(C)C)NC(=O)[C@H](CCCNC(=N)N)NC(=O)[C@H](CCCCN)NC(=O)[C@H](C)NC(=O)[C@H](CCCNC(=N)N)NC(=O)CN)C(C)C)C(=O)N1CCC[C@H]1C(=O)N[C@@H](CC(C)C)C(=O)N[C@@H](CC(C)C)C(=O)N[C@@H](Cc1c[nH]cn1)C(=O)N[C@@H](CC(C)C)C(=O)NCC(=O)O [BMAP-27C] (H-GRAKRLRKKLKKLAKKLSPVIPLLHLG-OH),–,–,–,2/2,6/6,4/4,4/4,2/3,17/19,–,–,–,>32,>32,>32,32
